Assay: xn = mol fraction of the nth substance listed
Conditions: 101 kPa, Liquid; for viscosity: Falling or rolling sphere viscometry; for mass density: Vibrating tube method; for electrical conductivity: Alternating current cell with electrodes, x2 = 0.1402

CCCC#N [butanenitrile] + CCCC[N+]1(C)CCCC1.O=S(=O)([N-]S(=O)(=O)C(F)(F)F)C(F)(F)F
Conditions	mass density [kg/m3]	viscosity [mPa·s]
293.15 K, x2 = 0	791.1	0.88
293.15 K, x2 = 0.1003	965	–
293.15 K, x2 = 0.1009	–	1.51
293.15 K, x2 = 0.1987	–	2.73
293.15 K, x2 = 0.1994	1078.7	–
293.15 K, x2 = 0.3001	1160.1	–
293.15 K, x2 = 0.3002	–	6.43
293.15 K, x2 = 0.4	–	8.77
293.15 K, x2 = 0.4006	1220.4	–
293.15 K, x2 = 0.4999	1267.7	–
293.15 K, x2 = 0.5012	–	14.45
293.15 K, x2 = 0.6	1304.7	22.39
293.15 K, x2 = 0.7	1335.1	33.65
293.15 K, x2 = 0.8	1360.6	49.94
293.15 K, x2 = 0.9	–	73.01
293.15 K, x2 = 0.9007	1382	–
298.15 K, x2 = 0	786.4	0.86
298.15 K, x2 = 0.1003	960.4	–
298.15 K, x2 = 0.1009	–	1.45
298.15 K, x2 = 0.1987	–	2.53
298.15 K, x2 = 0.1994	1074.3	–
298.15 K, x2 = 0.3001	1155.4	–
298.15 K, x2 = 0.3002	–	5.72
298.15 K, x2 = 0.4	–	7.81
298.15 K, x2 = 0.4006	1216.1	–
298.15 K, x2 = 0.4999	1263.2	–
298.15 K, x2 = 0.5012	–	12.44
298.15 K, x2 = 0.6	1300	18.94
298.15 K, x2 = 0.7	1330.5	27.95
298.15 K, x2 = 0.8	1356	40.71
298.15 K, x2 = 0.9	–	58.33
298.15 K, x2 = 0.9007	1377.5	–
303.15 K, x2 = 0	781.8	0.84
303.15 K, x2 = 0.1003	955.7	–
303.15 K, x2 = 0.1009	–	1.37
303.15 K, x2 = 0.1987	–	2.37
303.15 K, x2 = 0.1994	1069.6	–
303.15 K, x2 = 0.3001	1150.8	–
303.15 K, x2 = 0.3002	–	5.13
303.15 K, x2 = 0.4	–	7.14
303.15 K, x2 = 0.4006	1211.4	–
303.15 K, x2 = 0.4999	1258.6	–
303.15 K, x2 = 0.5012	–	10.81
303.15 K, x2 = 0.6	1295.5	16.2
303.15 K, x2 = 0.7	1326	23.51
303.15 K, x2 = 0.8	1351.5	33.68
303.15 K, x2 = 0.9	–	47.41
303.15 K, x2 = 0.9007	1373	–
313.15 K, x2 = 0	772.4	0.81
313.15 K, x2 = 0.1003	946.2	–
313.15 K, x2 = 0.1009	–	1.25
313.15 K, x2 = 0.1987	–	2.07
313.15 K, x2 = 0.1994	1060.1	–
313.15 K, x2 = 0.3001	1141.4	–
313.15 K, x2 = 0.3002	–	4.22
313.15 K, x2 = 0.4	–	5.68
313.15 K, x2 = 0.4006	1202.1	–
313.15 K, x2 = 0.4999	1249.3	–
313.15 K, x2 = 0.5012	–	8.38
313.15 K, x2 = 0.6	1286.2	12.18
313.15 K, x2 = 0.7	1316.8	17.18
313.15 K, x2 = 0.8	1342.3	23.91
313.15 K, x2 = 0.9	–	32.67
313.15 K, x2 = 0.9007	1363.8	–
323.15 K, x2 = 0	763	0.78
323.15 K, x2 = 0.1003	936.8	–
323.15 K, x2 = 0.1009	–	1.17
323.15 K, x2 = 0.1987	–	1.84
323.15 K, x2 = 0.1994	1050.7	–
323.15 K, x2 = 0.3001	1132.1	–
323.15 K, x2 = 0.3002	–	3.52
323.15 K, x2 = 0.4	–	4.62
323.15 K, x2 = 0.4006	1192.9	–
323.15 K, x2 = 0.4999	1240.2	–
323.15 K, x2 = 0.5012	–	6.67
323.15 K, x2 = 0.6	1277.2	9.47
323.15 K, x2 = 0.7	1307.9	13.04
323.15 K, x2 = 0.8	1333.3	17.69
323.15 K, x2 = 0.9	–	23.59
323.15 K, x2 = 0.9007	1354.9	–
333.15 K, x2 = 0	753.5	0.75
333.15 K, x2 = 0.1003	927.3	–
333.15 K, x2 = 0.1009	–	1.12
333.15 K, x2 = 0.1987	–	1.65
333.15 K, x2 = 0.1994	1041.1	–
333.15 K, x2 = 0.3001	1122.9	–
333.15 K, x2 = 0.3002	–	3.03
333.15 K, x2 = 0.4	–	3.85
333.15 K, x2 = 0.4006	1183.7	–
333.15 K, x2 = 0.4999	1231	–
333.15 K, x2 = 0.5012	–	5.43
333.15 K, x2 = 0.6	1268.3	7.55
333.15 K, x2 = 0.7	1298.9	10.2
333.15 K, x2 = 0.8	1324.1	13.55
333.15 K, x2 = 0.9	–	17.71
333.15 K, x2 = 0.9007	1345.7	–

Conditions	electrical conductivity [S/m]
293.2 K	1.69
299.5 K	1.85
302.7 K	1.97
310 K	2.19
313.7 K	2.3
324.6 K	2.62
334 K	2.9

— the NIST ThermoML archive (doi:10.1021/acs.jced.6b00718)
